Data from the NIST ThermoML archive (doi:10.1021/je7003116).
Numbers after ± are expanded uncertainties.

Assay: mn = molality of the nth substance listed, in mol/kg
Settings: for electrical conductivity / mass density: 101 kPa, Liquid; for electrical conductivity: Alternating current cell with electrodes

CC(=O)CC(c1ccccc1)c1c([O-])c2ccccc2oc1=O.[Na+] (stereo not given) [warfarin sodium] + O
Settings | electrical conductivity [S/m] | mass density [kg/m3] | surface tension liquid-gas [mN/m]
293.15 K, m1 = 0.005 | 0.0273 ± 0.001 | – | –
293.15 K, m1 = 0.00573 | – | 998.701 ± 0.66 | –
293.15 K, m1 = 0.006 | 0.0326 ± 0.001 | – | 66.46 ± 3.4
293.15 K, m1 = 0.00689 | – | 998.801 ± 0.66 | –
293.15 K, m1 = 0.007 | 0.0379 ± 0.001 | – | 65.61 ± 3.4
293.15 K, m1 = 0.00749 | – | 998.852 ± 0.66 | –
293.15 K, m1 = 0.008 | 0.0434 ± 0.001 | – | 64.92 ± 3.3
293.15 K, m1 = 0.00851 | – | 998.94 ± 0.66 | –
293.15 K, m1 = 0.009 | 0.0485 ± 0.001 | – | 64.06 ± 3.3
293.15 K, m1 = 0.00983 | – | 999.054 ± 0.66 | –
293.15 K, m1 = 0.01 | 0.0535 ± 0.001 | – | 62.77 ± 3.2
293.15 K, m1 = 0.018 | – | – | 58.07 ± 3
293.15 K, m1 = 0.02 | 0.1042 ± 0.001 | – | –
293.15 K, m1 = 0.02401 | – | 1000.27 ± 0.65 | –
293.15 K, m1 = 0.027 | – | – | 52.97 ± 2.8
293.15 K, m1 = 0.04 | 0.198 ± 0.006 | – | 50.48 ± 2.7
293.15 K, m1 = 0.0466 | – | 1002.19 ± 0.67 | –
293.15 K, m1 = 0.054 | – | – | 48.47 ± 2.6
293.15 K, m1 = 0.06 | 0.283 ± 0.006 | – | –
293.15 K, m1 = 0.067 | – | – | 45.58 ± 2.4
293.15 K, m1 = 0.0718 | – | 1004.26 ± 0.69 | –
293.15 K, m1 = 0.078 | – | – | 43.98 ± 2.4
293.15 K, m1 = 0.08 | 0.381 ± 0.006 | – | –
293.15 K, m1 = 0.089 | – | – | 41.68 ± 2.2
293.15 K, m1 = 0.0984 | – | 1006.41 ± 0.71 | –
293.15 K, m1 = 0.1 | 0.464 ± 0.006 | – | –
293.15 K, m1 = 0.107 | – | – | 41.58 ± 2.2
293.15 K, m1 = 0.125 | 0.56 ± 0.006 | – | 40.94 ± 2.2
293.15 K, m1 = 0.1251 | – | 1008.51 ± 0.73 | –
293.15 K, m1 = 0.15 | 0.651 ± 0.006 | 1010.43 ± 0.76 | 40.38 ± 2.2
293.15 K, m1 = 0.175 | 0.737 ± 0.006 | – | 40.23 ± 2.2
293.15 K, m1 = 0.176 | – | 1012.59 ± 0.78 | –
293.15 K, m1 = 0.2 | 0.822 ± 0.006 | 1014.56 ± 0.81 | 40.72 ± 2.2
293.15 K, m1 = 0.225 | 0.901 ± 0.006 | 1016.71 ± 0.83 | 40.23 ± 2.2
293.15 K, m1 = 0.25 | 0.974 ± 0.006 | 1018.89 ± 0.86 | 39.64 ± 2.1
293.15 K, m1 = 0.275 | 1.041 ± 0.006 | 1020.99 ± 0.88 | –
293.15 K, m1 = 0.279 | – | – | 40.09 ± 2.2
293.15 K, m1 = 0.3 | 1.102 ± 0.006 | 1023.15 ± 0.91 | –
293.15 K, m1 = 0.325 | – | 1025.24 ± 0.94 | –
293.15 K, m1 = 0.35 | – | 1027.33 ± 0.96 | –
293.15 K, m1 = 0.375 | – | 1029.29 ± 0.99 | –
293.15 K, m1 = 0.401 | – | 1031.33 ± 1 | –
303.15 K, m1 = 0.005 | 0.0288 ± 0.001 | – | –
303.15 K, m1 = 0.00579 | – | 996.134 ± 0.76 | –
303.15 K, m1 = 0.006 | 0.0344 ± 0.001 | – | –
303.15 K, m1 = 0.00695 | – | 996.231 ± 0.68 | –
303.15 K, m1 = 0.007 | 0.04 ± 0.001 | – | –
303.15 K, m1 = 0.00754 | – | 996.281 ± 0.68 | –
303.15 K, m1 = 0.008 | 0.0455 ± 0.001 | – | –
303.15 K, m1 = 0.00857 | – | 996.367 ± 0.68 | –
303.15 K, m1 = 0.009 | 0.051 ± 0.001 | – | –
303.15 K, m1 = 0.00987 | – | 996.476 ± 0.69 | –
303.15 K, m1 = 0.01 | 0.0565 ± 0.001 | – | –
303.15 K, m1 = 0.02 | 0.1087 ± 0.001 | – | –
303.15 K, m1 = 0.024 | – | 997.658 ± 0.67 | –
303.15 K, m1 = 0.04 | 0.209 ± 0.006 | – | –
303.15 K, m1 = 0.0465 | – | 999.515 ± 0.66 | –
303.15 K, m1 = 0.06 | 0.302 ± 0.006 | – | –
303.15 K, m1 = 0.0715 | – | 1001.52 ± 0.67 | –
303.15 K, m1 = 0.08 | 0.39 ± 0.006 | – | –
303.15 K, m1 = 0.0983 | – | 1003.59 ± 0.69 | –
303.15 K, m1 = 0.1 | 0.473 ± 0.006 | – | –
303.15 K, m1 = 0.125 | 0.575 ± 0.006 | 1005.62 ± 0.71 | –
303.15 K, m1 = 0.15 | 0.67 ± 0.006 | 1007.48 ± 0.73 | –
303.15 K, m1 = 0.175 | 0.761 ± 0.006 | – | –
303.15 K, m1 = 0.176 | – | 1009.57 ± 0.76 | –
303.15 K, m1 = 0.2 | 0.847 ± 0.006 | 1011.47 ± 0.78 | –
303.15 K, m1 = 0.225 | 0.928 ± 0.006 | 1013.56 ± 0.8 | –
303.15 K, m1 = 0.25 | 1.008 ± 0.006 | 1015.65 ± 0.83 | –
303.15 K, m1 = 0.275 | 1.081 ± 0.006 | 1017.69 ± 0.85 | –
303.15 K, m1 = 0.3 | 1.154 ± 0.006 | 1019.77 ± 0.88 | –
303.15 K, m1 = 0.325 | – | 1021.79 ± 0.91 | –
303.15 K, m1 = 0.35 | – | 1023.81 ± 0.93 | –
303.15 K, m1 = 0.375 | – | 1025.71 ± 0.96 | –
303.15 K, m1 = 0.3999 | – | 1027.67 ± 0.99 | –
313.15 K, m1 = 0.005 | 0.0299 ± 0.001 | – | –
313.15 K, m1 = 0.00576 | – | 992.687 ± 0.76 | –
313.15 K, m1 = 0.006 | 0.0358 ± 0.001 | – | –
313.15 K, m1 = 0.00695 | – | 992.784 ± 0.71 | –
313.15 K, m1 = 0.007 | 0.0416 ± 0.001 | – | –
313.15 K, m1 = 0.00759 | – | 992.836 ± 0.7 | –
313.15 K, m1 = 0.008 | 0.0474 ± 0.001 | – | –
313.15 K, m1 = 0.00857 | – | 992.916 ± 0.71 | –
313.15 K, m1 = 0.009 | 0.0532 ± 0.001 | – | –
313.15 K, m1 = 0.00988 | – | 993.022 ± 0.71 | –
313.15 K, m1 = 0.01 | 0.059 ± 0.001 | – | –
313.15 K, m1 = 0.02 | 0.1131 ± 0.001 | – | –
313.15 K, m1 = 0.0241 | – | 994.171 ± 0.7 | –
313.15 K, m1 = 0.04 | 0.216 ± 0.006 | – | –
313.15 K, m1 = 0.047 | – | 995.977 ± 0.69 | –
313.15 K, m1 = 0.06 | 0.314 ± 0.006 | – | –
313.15 K, m1 = 0.0719 | – | 997.928 ± 0.67 | –
313.15 K, m1 = 0.08 | 0.401 ± 0.006 | – | –
313.15 K, m1 = 0.0984 | – | 999.945 ± 0.66 | –
313.15 K, m1 = 0.1 | 0.489 ± 0.006 | – | –
313.15 K, m1 = 0.125 | 0.595 ± 0.006 | 1001.91 ± 0.68 | –
313.15 K, m1 = 0.15 | 0.694 ± 0.006 | 1003.72 ± 0.7 | –
313.15 K, m1 = 0.175 | 0.79 ± 0.006 | – | –
313.15 K, m1 = 0.176 | – | 1005.74 ± 0.72 | –
313.15 K, m1 = 0.2 | 0.88 ± 0.006 | 1007.59 ± 0.75 | –
313.15 K, m1 = 0.225 | 0.963 ± 0.006 | 1009.61 ± 0.77 | –
313.15 K, m1 = 0.25 | 1.046 ± 0.006 | 1011.64 ± 0.8 | –
313.15 K, m1 = 0.275 | 1.13 ± 0.01 | 1013.62 ± 0.82 | –
313.15 K, m1 = 0.3 | 1.206 ± 0.006 | 1015.64 ± 0.85 | –
313.15 K, m1 = 0.325 | – | 1017.6 ± 0.87 | –
313.15 K, m1 = 0.35 | – | 1019.56 ± 0.9 | –
313.15 K, m1 = 0.375 | – | 1021.4 ± 0.93 | –
313.15 K, m1 = 0.4009 | – | 1023.31 ± 0.95 | –
323.15 K, m1 = 0.005 | 0.0327 ± 0.001 | – | –
323.15 K, m1 = 0.00585 | – | 988.498 ± 0.74 | –
323.15 K, m1 = 0.006 | 0.039 ± 0.001 | – | –
323.15 K, m1 = 0.007 | 0.0454 ± 0.001 | – | –
323.15 K, m1 = 0.00702 | – | 988.591 ± 0.74 | –
323.15 K, m1 = 0.00767 | – | 988.642 ± 0.74 | –
323.15 K, m1 = 0.008 | 0.0516 ± 0.001 | – | –
323.15 K, m1 = 0.0087 | – | 988.722 ± 0.74 | –
323.15 K, m1 = 0.009 | 0.0576 ± 0.001 | – | –
323.15 K, m1 = 0.01 | 0.0638 ± 0.001 | – | –
323.15 K, m1 = 0.01001 | – | 988.824 ± 0.74 | –
323.15 K, m1 = 0.02 | 0.1211 ± 0.001 | – | –
323.15 K, m1 = 0.0243 | – | 989.947 ± 0.73 | –
323.15 K, m1 = 0.04 | 0.233 ± 0.006 | – | –
323.15 K, m1 = 0.0469 | – | 991.708 ± 0.72 | –
323.15 K, m1 = 0.06 | 0.338 ± 0.006 | – | –
323.15 K, m1 = 0.072 | – | 993.609 ± 0.71 | –
323.15 K, m1 = 0.08 | 0.429 ± 0.006 | – | –
323.15 K, m1 = 0.0985 | – | 995.582 ± 0.7 | –
323.15 K, m1 = 0.1 | 0.523 ± 0.006 | – | –
323.15 K, m1 = 0.125 | 0.634 ± 0.006 | 997.493 ± 0.69 | –
323.15 K, m1 = 0.15 | 0.734 ± 0.006 | 999.248 ± 0.68 | –
323.15 K, m1 = 0.175 | 0.83 ± 0.006 | – | –
323.15 K, m1 = 0.1765 | – | 1001.22 ± 0.69 | –
323.15 K, m1 = 0.2 | 0.921 ± 0.006 | 1003.02 ± 0.71 | –
323.15 K, m1 = 0.225 | 1.008 ± 0.006 | 1004.99 ± 0.73 | –
323.15 K, m1 = 0.25 | 1.091 ± 0.006 | 1006.96 ± 0.76 | –
323.15 K, m1 = 0.275 | 1.171 ± 0.006 | 1008.89 ± 0.78 | –
323.15 K, m1 = 0.3 | 1.245 ± 0.006 | 1010.86 ± 0.81 | –
323.15 K, m1 = 0.325 | – | 1012.77 ± 0.83 | –
323.15 K, m1 = 0.35 | – | 1014.68 ± 0.86 | –
323.15 K, m1 = 0.375 | – | 1016.47 ± 0.88 | –
323.15 K, m1 = 0.4021 | – | 1018.32 ± 0.91 | –
